Experimental data published in US6747061B2, “N-substituted dithiocarbamates for the treatment of biological disorders” (AtheroGenics, Inc., priority 2000, dated 2004).
Counter-ions that a name gives are not always drawn. Like-named read-outs stand apart in the source and are kept apart here.

Legend:
[1] = tested on: VCAM-1; assay: VCAM-1 assay: enzyme immunoassay of TNF-α induced VCAM-1 expression in endothelial cells; type: cell-based, Human
Procedure: The VCAM-1 assay is an enzyme immunoassay to detect tumor necrosis factor alpha (TNF-α) induced Vascular Adhesion Molecule (VCAM-1) expression in endothelial cells.
Human endothelial cells (HAEC) were purchased from Clonetics and maintained in EGM media (Clonetics) supplemented with 5% fetal bovine serum (FBS). In a typical experiment, cells were seeded in 96-well plates. The next day cells were stimulated with TNF-α (1 ng/ml) purchased from Boehringer Mannheim in the presence or absence of compounds dissolved in dimethylsulphoxide (DMSO). To establish a dose curve for each compound, four concentrations in 2 fold increments were used. Cells were exposed to TNF-α and compounds for approximately 16 hours. The next day, cells were examined under microscope to score for visual signs of toxicity.
Media was discarded and the cells were washed once with Hanks buffered saline solution (HBSS)/phosphate buffered solution (PBS) 91:1). Primary mouse monoclonal antibody against VCAM-1 purchased from Southern Biotechnology Associates (0.25 μg/ml in HBSS/PBS+5% FBS) was added and incubated at 37° C. for 30 minutes. Cells were washed with HBSS/PBS three times, and secondary antibody horse radish peroxidase (HRP)-conjugated goat anti-mouse IgG purchased from Southern Biotechnology Associates (1:500 in HBSS/PBS+5% FBS) was added and incubated at 37° C. for 30 minutes. Cells were washed with HBSS/PBS four times and peroxidase substrate 3.3′,5,5′-tetramethyl-benzidine (TMB) was added and incubated in the dark at room temperature until there was adequate blue color development. The length of incubation time was typically 5-15 minutes. 2 N sulfuric acid was added to stop the color development and the data was collected by reading the absorbance at O.D. 450 nm. The result was expressed as the percentage of control sample (cells stimulated by TNF without any compound).

[2] = tested on: DLD-1 colorectal carcinoma cells; assay: Anti-proliferative effect on DLD-1 cells (CellTiter96); type: cell-based; settings: Homo sapiens, 5-FU alone 1 μM, read-out: proliferation, percent of control
Procedure: (§1) All primary cells and cell lines were commercially available. The transformed cell lines were grown in Dulbecco's Modified Eagle Media supplemented with 2 mM L-glutamine, 50 I.U. penicillin, 50 μg/ml streptomycin, nonessential amino acids and 10% heat-inactivated fetal bovine serum. HASM, HAEC and NHBE cells were cultured exactly as described by the commercial provider (Clonetics, San Diego, Calif.). All cell lines were grown at 37° C. in 5% CO2, with the media being changed every 48 hours.
(§2) For the experimental assays, cells were plated in 96-well plates and grown until ˜35% confluency was achieved. For the transformed cell lines, cells were plated at low density and grown for 72 hours prior to being stimulated, whereas the non-transformed cells were plated at a higher density and grown for 24 hours prior to being stimulated.
(§3) Cells were treated with dithiocarbamate (0.1-100 μM)±5FU (0.01-10 μM) and retreated after 48 hours when media was changed. Cell growth was assessed using the CellTiter96® assay system from Promega (Madison, Wis.). Each experimental condition was performed in triplicate or quadruplicate, with the number of experiments for each cell line being three.
(§4) Statistical significance was assessed using an ANOVA with the appropriate post-hoc analysis as well as Students t-tests. *=p<0.05 when compared to control-treated (DMSO) cells. #=p<0.05 when compared to 5FU-treated cells.

[3] = tested on: HeLa; assay: Proliferation of HeLa cells (FIG. 1, CellTiter96); type: cell-based; settings: 10 μM dithiocarbamate + 0.1 μM 5-FU, or 0.1 μM 5-FU alone, 24-72 hours
Procedure: as §1, §2
(§5) Cells were treated with dithiocarbamate (0.1-100 μM)±5FU (0.01-10 μM) and retreated after 48 hours when media was changed. Cell growth was assessed using the CellTiter96® assay system from Promega (Madison, Wis.). […]
as §4

[4] = tested on: Saos-2; assay: Proliferation of Saos-2 cells (FIG. 1, CellTiter96); type: cell-based; settings: 10 μM dithiocarbamate + 0.1 μM 5-FU, or 0.1 μM 5-FU alone, 24-72 hours
Procedure: as §1, §2, §5, §4

[5] = tested on: NHBE; assay: Proliferation of non-transformed NHBE cells (FIG. 1, CellTiter96); type: cell-based, Human; settings: 10 μM dithiocarbamate + 0.1 μM 5-FU, or 0.1 μM 5-FU alone, 24-72 hours
Procedure: as §1, §2, §5, §4

[6] = tested on: SNU-C5 colorectal carcinoma cells; assay: Anti-proliferative effect on SNU-C5 cells (CellTiter96); type: cell-based; settings: 5-FU alone 1 μM, read-out: proliferation, percent of control
Procedure: as §1, §2, §3, §4

[7] = tested on: HASM; assay: Proliferation of non-transformed HASM cells (FIG. 1, CellTiter96); type: cell-based, Human; settings: 10 μM dithiocarbamate + 0.1 μM 5-FU, or 0.1 μM 5-FU alone, 24-72 hours
Procedure: as §1, §2, §5, §4

[8] = tested on: HAEC; assay: Proliferation of non-transformed HAEC cells (FIG. 1, CellTiter96); type: cell-based, Human; settings: 10 μM dithiocarbamate + 0.1 μM 5-FU, or 0.1 μM 5-FU alone, 24-72 hours
Procedure: as §1, §2, §5, §4

[9] = tested on: T98G; assay: Proliferation of T98G cells (FIG. 1, CellTiter96); type: cell-based; settings: 10 μM dithiocarbamate + 0.1 μM 5-FU, or 0.1 μM 5-FU alone, 24-72 hours
Procedure: as §1, §2, §5, §4

[10] = tested on: MCF-7; assay: Proliferation of MCF-7 cells (FIG. 1, CellTiter96); type: cell-based; settings: 10 μM dithiocarbamate + 0.1 μM 5-FU, or 0.1 μM 5-FU alone, 24-72 hours
Procedure: as §1, §2, §5, §4

[11] = tested on: H1299; assay: Proliferation of H1299 cells (FIG. 1, CellTiter96); type: cell-based; settings: 10 μM dithiocarbamate + 0.1 μM 5-FU, or 0.1 μM 5-FU alone, 24-72 hours
Procedure: as §1, §2, §5, §4

[12] = Homo sapiens, Endothelial cell, HAEC, TNF-α 1 ng/ml, approximately 16 hours, read-out: VCAM-1 IC50
[13] = Homo sapiens, Endothelial cell, 16 h, read-out: VCAM-1 IC50 (μM)
[14] = HAEC, TNF-α 1 ng/ml, approximately 16 hours, read-out: VCAM-1 IC50

COc1cccc(CNC(=S)SCC(=O)C(C)(C)C)c1 [(3-Methoxybenzyl)dithiocarbamic acid 3,3-dimethyl-2-oxo-butyl ester] showed an IC50 [1, 12] of 2 µM.
CNC(=S)Sc1ccc(F)cc1F [Methyldithiocarbamic acid 2,4-difluorophenyl ester] gave an IC50 [1, 12] of 18 µM.
S=C(NCc1ccc(Cl)cc1Cl)SCc1ccc(Cl)cc1Cl [(2,4-dichlorobenzyl)dithiocarbamic acid 2,4-dichlorobenzyl ester] showed an IC50 [1, 13] of 8 µM.
Compound COCCNC(=S)SCCCC(=O)OC [II: X=CH3O, Y′=C(O)OCH3, N=2, m=3, 4-(2-Methoxy-ethylthiocarbamoylsulfanyl)butyric acid methyl ester] has an IC50 [1, 12] of 11 µM.
For COC(=O)CCCSC(=S)NC[C@H]1CCCO1 [4-((R)-Tetrahydrofuran-2-ylmethylthiocarbamoyl-sulfanyl)butyric acid methyl ester], the IC50 [1, 12] was 3 µM.
With COCCCNC(=S)Sc1ccc(Cl)cc1 [(3-Methoxypropyl)dithiocarbamic acid 4-chlorophenyl ester] the IC50 [1, 12] was 6 µM.
COC(=O)CCCCCSC(=S)NCC1CCCO1 (stereo not shown) [III: Y′=(CH2)5C(O)OCH2CH3, 6-(Tetrahydrofuran-2-ylmethylthiocarbamoyl-sulfanyl)hexanoic acid methyl ester] was tested, and the IC50 [1, 12] was 11 µM.
With COC(=O)CCCSC(=S)NCCc1cc2ccccc2[nH]1 [4-[2-(1H-Indol-2-yl)ethylthiocarbamoyl-sulfanyl]butyric acid methyl ester] the IC50 [1, 13] was 5 µM.
CCOC(=O)CCCNC(=S)SCC1CCCO1 (stereo not shown) [4-(Tetrahydrofuran-2-ylmethylsulfanyllthio-carbonylamino)butyric acid ethyl ester] was tested, and the IC50 [1, 14] was 5 µM.
S=C(NCc1cccnc1)SCc1cc(Cl)sc1Cl [(Pyridin-3-ylmethyl)dithiocarbamic acid 2,5-dichloro-thiophen-3-ylmethyl ester] showed an IC50 [1, 12] of 1.5 µM.
COC(=O)CCCSC(=S)NCCC1CCCN1C (stereo not shown) [4-[2-(1-Methylpyrrolidin-2-yl)ethylthiocarbamoyl-sulfanyl]butyric acid methyl ester] was tested, and the IC50 [1, 12] was 18 µM.
O=c1[nH]cc(F)c(=O)[nH]1 [5-FU, 5-fluorouracil] showed an activity at 1 µM ([2]; 24 HOURS) of 90.8%, an activity at 1 µM ([2]; 48 HOURS) of 85.8% and an activity at 1 µM ([2]; 72 HOURS) of 113%. The inhibition of proliferation [3] was “no significant inhibition of proliferation”, the inhibition of proliferation [4] was “no significant inhibition of proliferation” and the inhibition of proliferation [5] was “no significant inhibition of proliferation”. It also gave an activity at 1 µM ([6]; 24 HOURS) of 109%, an activity at 1 µM ([6]; 48 HOURS) of 85.5% and an activity at 1 µM ([6]; 72 HOURS) of 86.1%. For the same compound, the inhibition of proliferation [7] was “no significant inhibition of proliferation”, the inhibition of proliferation [8] was “no significant inhibition of proliferation” and the inhibition of proliferation [9] was “no significant inhibition of proliferation”. The inhibition of proliferation [10] was “no significant inhibition of proliferation” and the inhibition of proliferation [11] was “no significant inhibition of proliferation”.
CC(=O)CCCSC(=S)NCC1CCCO1 (stereo not shown) [III: Y′=(CH2)3C(O)CH3, (Tetrahydrofuran-2-ylmethyl)dithiocarbamic acid 4-oxo-pentyl ester] gave an IC50 [1, 12] of 7 µM.
Compound COC(=O)CCCSC(=S)NC[C@@H]1CCCO1 [4-((S)-Tetrahydrofuran-2-ylmethylthiocarbamoyl-sulfanyl)butyric acid methyl ester] has an IC50 [1, 12] of 3 µM.
For CCOC(=O)NC(=S)SCCC(=O)OC [3-(Ethoxycarbonylthiocarbamoylsulfanyl)propionic acid methyl ester], the IC50 [1, 12] was 50 µM.
O=C(O)CCCSC(=S)NCC1CCCO1 (stereo not shown) [III: Y′=(CH2)3C(O)OH, 4-(Tetrahydrofuran-2-ylmethylthiocarbamoylsulfanyl)-butyric acid] showed an IC50 [1, 12] of 7 µM.
With COC(=O)CSC(=S)NCC1CCCO1 (stereo not shown) [III: Y′=CH2C(O)OCH3, (Tetrahydrofuran-2-ylmethylthiocarbamoylsulfanyl)acetic acid methyl ester] the IC50 [1, 12] was 10 µM.
COC(=O)CCSC(=S)NCc1ccco1 [3-(Furan-2-ylmethylthiocarbamoyl-sulfanyl)propionic acid methyl ester] showed an IC50 [1, 13] of 6 µM.
Work on COC(=O)CCSC(=S)NCC1CCCO1 (stereo not shown) [III: Y′=(CH2)2C(O)OCH3, 3-(Tetrahydrofuran-2-ylmethylthiocarbamoylsulfanyl)-propionic acid methyl ester] yielded an IC50 [1, 12] of 3 µM.
Compound CC(C)CNC(=S)SCc1ccc(Cl)cc1Cl [Isobutyldithiocarbamic acid 2,4-dichlorobenzyl ester] has an IC50 [1, 13] of 32 µM.
CCN(CC)CCNC(=S)SCCC(=O)OC [3-(2-Diethylamino-ethylthiocarbamoylsulfanyl)-propionic acid methyl ester] gave an IC50 [1, 12] of 37 µM.
Compound N#CCCCSC(=S)NCC1CCCO1 (stereo not shown) [III: Y′=(CH2)3CN, (Tetrahydrofuran-2-ylmethyl)dithiocarbamic acid 3-cyano-propyl ester] has an IC50 [1, 12] of 3 µM.
COC(=O)CCCSC(=S)NCC1CCCCC1 [4-(Cyclohexylmethylthiocarbamoylsulfanyl)butyric acid methyl ester] was tested, and the IC50 [1, 12] was 40 µM.
C=CCNC(=S)SCCCC(=O)OC [4-(Allylthiocarbamoylsulfanyl)butyric acid methyl ester] showed an IC50 [1, 12] of 30 µM.
For CCCCCCCCCCCCSC(=S)NCCc1ccccc1 [Phenethyldithiocarbamic acid dodecyl ester], the IC50 [1, 12] was 30 µM.
COC(=O)CCCSC(=S)NCc1ccccc1 [4-(Benzylthiocarbamoylsulfanyl)butyric acid methyl ester] gave an IC50 [1, 12] of 25 µM.
NC(CSC(=S)NCc1ccccc1)C(=O)O (stereo not shown) [(2-Amino-3-benzylthiocarbamoylsulfanyl)propionic acid] was tested, and the IC50 [1, 14] was 7 µM.
CSC(=S)NCC1CCCO1 (stereo not shown) [III: Y′=CH3, (Tetrahydrofuran-2-ylmethyl)dithiocarbamic acid methyl ester] gave an IC50 [1, 12] of 6.5 µM.
CNC(=S)SCCC(=O)OC [II: X=H, Y′=C(O)OCH3, N=1, m=2, 3-(Methylthiocarbamoylsulfanyl)propionic acid methyl ester] showed an IC50 [1, 12] of 14 µM.
With C=CCNC(=S)SCCN [Allyldithiocarbamic acid 2-aminoethyl ester hydrochloride] the IC50 [1, 12] was 12 µM.
